# Legend:
# [1] = biological target: T1, Alpha-1A adrenergic receptor (Homo sapiens, UniProt P35348)
# T1 sequence (P35348 whole entry): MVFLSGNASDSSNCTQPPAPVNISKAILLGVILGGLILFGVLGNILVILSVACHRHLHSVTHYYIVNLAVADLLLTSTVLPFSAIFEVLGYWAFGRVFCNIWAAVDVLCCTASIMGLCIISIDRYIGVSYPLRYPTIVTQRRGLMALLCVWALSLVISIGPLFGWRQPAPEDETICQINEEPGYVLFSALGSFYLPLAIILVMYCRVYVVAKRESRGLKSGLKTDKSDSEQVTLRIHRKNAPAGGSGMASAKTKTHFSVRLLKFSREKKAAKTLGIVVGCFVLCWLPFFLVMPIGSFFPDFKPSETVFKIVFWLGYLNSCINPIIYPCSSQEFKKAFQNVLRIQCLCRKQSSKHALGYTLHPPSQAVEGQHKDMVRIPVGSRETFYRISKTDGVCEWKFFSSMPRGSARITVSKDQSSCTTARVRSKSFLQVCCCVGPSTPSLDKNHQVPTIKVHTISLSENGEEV
# [2] = biological target: T2, Alpha-2C adrenergic receptor (Homo sapiens, UniProt P18825); format: functional
# T2 sequence (P18825 whole entry): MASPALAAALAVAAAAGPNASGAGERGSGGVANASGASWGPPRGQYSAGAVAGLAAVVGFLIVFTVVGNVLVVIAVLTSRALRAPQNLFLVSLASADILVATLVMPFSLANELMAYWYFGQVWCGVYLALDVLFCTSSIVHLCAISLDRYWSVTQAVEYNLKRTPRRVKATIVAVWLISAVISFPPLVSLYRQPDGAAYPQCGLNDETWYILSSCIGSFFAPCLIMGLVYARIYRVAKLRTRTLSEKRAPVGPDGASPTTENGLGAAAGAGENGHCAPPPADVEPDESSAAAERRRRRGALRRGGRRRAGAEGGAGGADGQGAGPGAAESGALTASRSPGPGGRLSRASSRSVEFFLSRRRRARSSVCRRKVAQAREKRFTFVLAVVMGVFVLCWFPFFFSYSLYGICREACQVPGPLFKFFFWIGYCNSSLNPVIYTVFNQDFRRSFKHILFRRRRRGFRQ
# [3] = biological target: T3, Alpha-2A adrenergic receptor (Homo sapiens, UniProt P08913); format: functional, cell-based
# T3 sequence (P08913 whole entry): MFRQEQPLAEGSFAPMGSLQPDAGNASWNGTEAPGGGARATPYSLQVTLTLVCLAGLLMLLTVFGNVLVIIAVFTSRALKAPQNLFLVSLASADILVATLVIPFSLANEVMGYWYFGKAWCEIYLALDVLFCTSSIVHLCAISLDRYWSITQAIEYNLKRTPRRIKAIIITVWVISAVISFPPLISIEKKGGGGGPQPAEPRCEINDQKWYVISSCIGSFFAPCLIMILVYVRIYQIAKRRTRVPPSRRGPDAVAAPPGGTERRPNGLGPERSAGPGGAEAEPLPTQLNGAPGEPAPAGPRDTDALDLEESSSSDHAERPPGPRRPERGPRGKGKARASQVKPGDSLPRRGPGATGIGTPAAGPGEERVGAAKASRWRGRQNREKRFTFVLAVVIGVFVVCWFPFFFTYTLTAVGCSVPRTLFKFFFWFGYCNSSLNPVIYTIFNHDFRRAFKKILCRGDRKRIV
# [4] = biological target: 5-hydroxytryptamine receptor 2B (Homo sapiens, UniProt P41595); format: functional, cell-based
# [5] = biological target: T4, Cholecystokinin receptor type A (Homo sapiens, UniProt P32238)
# T4 sequence (P32238 whole entry): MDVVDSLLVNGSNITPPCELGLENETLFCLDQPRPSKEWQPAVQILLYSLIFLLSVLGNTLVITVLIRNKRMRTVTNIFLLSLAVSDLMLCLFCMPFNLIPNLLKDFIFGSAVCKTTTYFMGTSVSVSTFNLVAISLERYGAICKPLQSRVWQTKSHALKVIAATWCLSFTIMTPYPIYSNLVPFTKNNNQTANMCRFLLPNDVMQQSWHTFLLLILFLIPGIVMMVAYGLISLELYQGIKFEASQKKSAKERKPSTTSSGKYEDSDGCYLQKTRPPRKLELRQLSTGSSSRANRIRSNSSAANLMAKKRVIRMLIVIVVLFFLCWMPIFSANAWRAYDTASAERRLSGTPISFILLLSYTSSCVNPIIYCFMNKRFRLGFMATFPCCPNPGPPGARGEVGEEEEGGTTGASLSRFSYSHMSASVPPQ
# Adenosine receptor A3 [6] = biological target: T5, Adenosine receptor A3 (Homo sapiens, UniProt P0DMS8)
# T5 sequence (P0DMS8 whole entry): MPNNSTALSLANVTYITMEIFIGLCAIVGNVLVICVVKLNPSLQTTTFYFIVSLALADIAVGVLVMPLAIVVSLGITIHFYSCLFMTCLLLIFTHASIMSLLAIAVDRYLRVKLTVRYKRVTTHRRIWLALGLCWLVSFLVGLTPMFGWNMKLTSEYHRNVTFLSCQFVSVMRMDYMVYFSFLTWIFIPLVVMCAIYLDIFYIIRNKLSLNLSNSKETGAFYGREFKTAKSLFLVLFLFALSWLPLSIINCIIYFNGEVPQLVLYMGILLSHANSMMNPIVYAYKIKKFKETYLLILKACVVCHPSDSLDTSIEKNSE
# [7] = biological target: T1, Alpha-1A adrenergic receptor; format: functional, cell-based
# Cannabinoid receptor 1 = Cannabinoid receptor 1 (Homo sapiens, UniProt P21554); format: functional, cell-based
# Adenosine receptor A3 [8] = biological target: T5, Adenosine receptor A3; remark: listed apart in the source
# Mu-type opioid receptor = Mu-type opioid receptor (Homo sapiens, UniProt P35372)
# Also: assay procedure not described here.
# Sequence of 5-hydroxytryptamine receptor 2B (P41595 whole entry): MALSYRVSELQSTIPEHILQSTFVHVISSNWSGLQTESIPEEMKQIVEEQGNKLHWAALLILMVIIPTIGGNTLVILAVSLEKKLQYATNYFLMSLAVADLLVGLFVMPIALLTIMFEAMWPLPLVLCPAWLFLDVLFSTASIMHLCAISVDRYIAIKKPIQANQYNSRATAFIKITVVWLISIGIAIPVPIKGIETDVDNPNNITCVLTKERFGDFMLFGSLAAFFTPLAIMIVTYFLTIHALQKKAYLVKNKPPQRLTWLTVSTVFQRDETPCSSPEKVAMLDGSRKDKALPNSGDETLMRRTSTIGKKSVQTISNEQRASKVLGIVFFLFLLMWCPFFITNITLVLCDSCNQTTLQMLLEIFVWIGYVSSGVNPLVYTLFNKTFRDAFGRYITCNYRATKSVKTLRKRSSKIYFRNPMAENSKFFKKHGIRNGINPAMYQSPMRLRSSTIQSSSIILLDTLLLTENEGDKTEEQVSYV
# Sequence of Cannabinoid receptor 1 (P21554 whole entry): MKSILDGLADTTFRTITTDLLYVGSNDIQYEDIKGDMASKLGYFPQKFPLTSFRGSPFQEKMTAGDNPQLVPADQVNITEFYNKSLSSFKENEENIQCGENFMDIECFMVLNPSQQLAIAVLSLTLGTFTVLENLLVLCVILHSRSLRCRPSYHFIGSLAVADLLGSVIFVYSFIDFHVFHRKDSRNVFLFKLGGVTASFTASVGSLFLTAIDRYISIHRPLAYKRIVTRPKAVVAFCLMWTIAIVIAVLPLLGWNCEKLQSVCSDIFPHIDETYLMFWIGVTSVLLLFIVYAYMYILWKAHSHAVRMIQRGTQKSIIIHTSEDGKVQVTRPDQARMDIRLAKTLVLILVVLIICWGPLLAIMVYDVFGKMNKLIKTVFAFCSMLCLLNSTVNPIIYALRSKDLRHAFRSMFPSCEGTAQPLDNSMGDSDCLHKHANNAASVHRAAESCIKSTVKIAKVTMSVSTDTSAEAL
# Sequence of Mu-type opioid receptor (P35372 whole entry): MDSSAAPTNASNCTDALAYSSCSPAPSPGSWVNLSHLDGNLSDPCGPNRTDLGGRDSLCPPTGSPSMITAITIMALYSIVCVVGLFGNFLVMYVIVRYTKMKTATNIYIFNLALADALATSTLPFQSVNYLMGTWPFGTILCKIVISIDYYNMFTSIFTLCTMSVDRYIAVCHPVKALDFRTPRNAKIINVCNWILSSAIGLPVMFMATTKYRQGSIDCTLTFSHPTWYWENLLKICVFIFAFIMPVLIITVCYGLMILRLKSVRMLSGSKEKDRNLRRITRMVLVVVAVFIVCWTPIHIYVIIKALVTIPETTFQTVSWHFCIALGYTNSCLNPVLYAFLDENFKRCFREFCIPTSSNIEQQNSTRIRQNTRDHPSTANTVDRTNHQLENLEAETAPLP
Structure (SMILES),AC50 [1] [µM],AC50 [2] [µM],AC50 [3] [µM],AC50 [4] [µM],AC50 [5] [µM],AC50 (Adenosine receptor A3 [6]) [µM],AC50 [7] [µM],AC50 (Cannabinoid receptor 1) [µM],AC50 (Adenosine receptor A3 [8]) [µM],AC50 (Mu-type opioid receptor) [µM]
C[N+]1(C)CCC(=C(c2ccccc2)c2ccccc2)CC1,> 10,> 10,> 10,> 10,> 30,> 30,,,,
C[N+](C)(C)CCOP(=O)([O-])OC[C@H](O)CO,,> 30,> 30,> 30,> 30,> 30,> 30,> 30,,
CN(C)Cc1nnc2n1-c1ccc(Cl)cc1C(c1ccccc1)=NC2 [ADINAZOLAM],> 10,> 10,> 10,> 10,> 10,> 10,,,,
CN(C)C/C=C/C(=O)Nc1cc2c(Nc3ccc(F)c(Cl)c3)ncnc2cc1O[C@H]1CCOC1 [AFATINIB],,> 30,> 30,> 30,11,> 30,> 30,> 30,,
Cc1ccccc1-n1c(CF)nc2ccc(N)cc2c1=O [AFLOQUALONE],> 30,> 10,> 10,> 10,> 30,> 30,,,,
CCC1(c2ccc(N)cc2)CCC(=O)NC1=O (centres undefined) [AMINOGLUTETHIMIDE],,> 30,> 30,> 30,> 30,> 30,> 30,> 30,,
CC(=O)OC[C@H]1O[C@@H](n2ncc(=O)[nH]c2=O)[C@H](OC(C)=O)[C@@H]1OC(C)=O [AZARIBINE],,,,,,,,,> 30,> 30
CC1=C(C(=O)OC(C)C)C(c2cccc([N+](=O)[O-])c2)C(C(=O)OC2CN(C(c3ccccc3)c3ccccc3)C2)=C(N)N1 (centres undefined) [AZELNIDIPINE],,13,> 30,> 30,> 30,2.2,> 30,> 30,,
CC(Cc1cccc(C(F)(F)F)c1)NCCOC(=O)c1ccccc1 (centres undefined) [BENFLUOREX],,2.41,> 30,> 30,> 30,28,> 30,,,
CCOC(=O)c1ccc(N)cc1 [BENZOCAINE],> 10,> 10,> 10,> 10,> 10,> 10,,,,
NC[C@H]1CC[C@H](C(=O)Oc2ccc(CCC(=O)O)cc2)CC1 [CETRAXATE],,> 30,> 30,,,,> 30,> 30,,> 30
C=C1CC[C@H](O)C/C1=C/C=C1\CCC[C@]2(C)[C@@H]([C@H](C)CCCC(C)C)CC[C@@H]12 [CHOLECALCIFEROL],,,,,,,,,14.8,> 30
C[C@H](CCC(=O)O)[C@H]1CC[C@H]2[C@@H]3[C@H](O)C[C@@H]4C[C@H](O)CC[C@]4(C)[C@H]3C[C@H](O)[C@]12C [CHOLIC ACID],,,,,,,,,> 30,
C/C=C(/C(=C/C)c1ccc(O)cc1)c1ccc(O)cc1 [DIENESTROL],> 10,> 10,> 10,> 10,> 10,7.3,,,,
CN[C@]1(c2ccccc2Cl)CCCCC1=O [ESKETAMINE],,> 30,> 30,> 30,> 30,> 30,> 30,,,
CC(O)(P(=O)(O)O)P(=O)(O)O [ETIDRONIC ACID],,,,,,,,,> 30,> 30
COc1ccc([C@@H]2CC(=O)c3c(O)cc(O)cc3O2)cc1O [HESPERETIN],> 30,> 10,> 10,> 10,> 10,> 10,,,,
CCOC(=O)C1=C(C)NC(C)=C(C(=O)OCC)C1c1ccccc1/C=C/C(=O)OC(C)(C)C [LACIDIPINE],,> 30,> 30,> 30,> 30,15,> 30,> 30,,
COC(=O)C1=C(C)NC(C)=C(C(=O)OCCN2CCN(C(c3ccccc3)c3ccccc3)CC2)C1c1cccc([N+](=O)[O-])c1 (centres undefined) [MANIDIPINE 6300],,> 30,> 30,> 30,> 30,3.8,> 30,26,,
O=C1c2cccc3c2[C@H](CCC3)CN1[C@@H]1CN2CCC1CC2 [PALONOSETRON],,4,> 30,> 30,> 30,> 30,> 30,,,
OC[C@H]1O[C@@H](n2cnc3c2NC=NC[C@H]3O)C[C@@H]1O [PENTOSTATIN],,> 30,> 30,> 30,> 30,3.6,> 30,> 30,,
NNCCc1ccccc1 [PHENELZINE],,,,,,,,,> 30,> 30
Cc1cccc(C)c1NC(=O)CC12CCCN1CCC2 [PILSICAINIDE],,> 30,> 30,> 30,> 30,> 30,> 30,> 30,,
CC(C)c1cccc(C(C)C)c1O [PROPOFOL],,> 30,> 30,> 30,> 30,> 30,> 30,> 30,,
COC(=O)[C@H]1[C@H]2C[C@@H]3c4[nH]c5cc(OC)ccc5c4CCN3C[C@H]2C[C@@H](OC(=O)c2cc(OC)c(OC)c(OC)c2)[C@@H]1OC [RESERPINE],,> 30,> 10,> 10,> 10,26.5,,,17.7,3.77
O=C1OC(OC(=O)c2cccnc2Nc2cccc(C(F)(F)F)c2)c2ccccc21 (centres undefined) [TALNIFLUMATE],,> 30,> 30,> 30,> 30,> 30,> 30,> 30,,
Cc1ccc(C(=O)C(C)CN2CCCCC2)cc1 (centres undefined) [TOLPERISONE],,,,,,,,,> 30,> 30
CCOC(=O)c1c(CSc2ccccc2)n(C)c2cc(Br)c(O)c(CN(C)C)c12 [UMIFENOVIR],,12,> 30,> 30,> 30,> 30,> 30,> 30,,
